What follows are compounds tested against human PDE10A2 (Homo sapiens (Human), UniProt Q9Y233) (assay: PDE10 fluorescence polarization (IMAP FP) inhibition assay). Settings: human PDE10A2 lysate, FAM-labeled cAMP 50 nM, room temperature; read-out: PDE10A Ki.
Format: biochemical
Method: The activity of the compounds in accordance with the present invention as PDE10 inhibitors may be readily determined without undue experimentation using a fluorescence polarization (FP) methodology that is well known in the art (Huang, W., et al., J. Biomol Screen, 2002, 7: 215). […] In a typical experiment the PDE10 inhibitory activity of the compounds of the present invention was determined in accordance with the following experimental method. PDE10A2 was amplified from human fetal brain cDNA (Clontech, Mountain View, Calif.) using a forward primer corresponding to nucleotides 56-77 of human PDE10A2 (Accession No. AF127480, Genbank Identifier 4894716), containing a Kozak consensus sequence, and a reverse primer corresponding to nucleotides 2406-2413 of human PDE10A2 (Accession No. AF127480, Genbank Identifier 4894716). Amplification with Easy-A polymerase (Stratagene, La Jolla, Calif.) was 95° C. for 2 minutes followed by thirty three cycles of 95° C. for 40 seconds, 55° C. for 30 seconds, and 72° C. for 2 minutes 48 seconds. Final extension was 72° C. for 7 minutes. The PCR product was TA cloned into pcDNA3.2-TOPO (Invitrogen, Carlsbad, Calif.) according to standard protocol. AD293 cells with 70-80% confluency were transiently transfected with human PDE10A2/pcDNA3.2-TOPO using Lipofectamine 2000 according to manufacturer specifications (Invitrogen, Carlsbad, Calif.). Cells were harvested 48 hours post-transfection and lysed by sonication (setting 3, 10×5 sec pulses) in a buffer containing 20 mM HEPES, 1 mM EDTA and protease inhibitor cocktail (Roche). Lysate was collected by centrifugation at 75,000×g for 20 minutes. Supernatant containing the cytoplasmic fraction was used for evaluation of PDE10A2 activity. The fluorescence polarization assay for cyclic nucleotide phosphodiesterases was performed using an IMAP® FP kit supplied by Molecular Devices, Sunnyvale, Calif. (product #R8139). IMAP® technology has been applied previously to phosphodiesterase assays (Huang, W., et al., J. Biomol Screen, 2002, 7: 215). Assays were performed at room temperature in 384-well microtiter plates with an incubation volume of 20.2 μL. Solutions of test compounds were prepared in DMSO and serially diluted with DMSO to yield 8 μL of each of 10 solutions differing by 3-fold in concentration, at 32 serial dilutions per plate. 100% inhibition is determined using a known PDE10 inhibitor, which can be any compound that is present at 5,000 times its Ki value in the assay described as follows, such as papaverine (see Siuciak, et al. Neuropharmacology (2006) 51:386-396; Becker, et al. Behav Brain Res (2008) 186(2):155-60; Threlfell, et al., J Pharmacol Exp Ther (2009) 328(3):785-795), 2-{4-[pyridin-4-yl-1-(2,2,2-trifluoroethyl)-1H-pyrazol-3-yl]phenoxymethyl}quinoline succinic acid or 2-[4-(1-methyl-4-pyridin-4-yl-1H-pyrazol-3-yl)-phenoxymethyl]quinoline succinic acid (see Schmidt, et al. J Pharmacol Exp Ther (2008) 325:681-690; Threlfell, et al., J Pharmacol Exp Ther (2009) 328(3): 785-795). 0% of inhibition is determined by using DMSO (1% final concentrations).
A Labcyte Echo 555 (Labcyte, Sunnyvale, Calif.) is used to dispense 200 nL from each well of the titration plate to the 384 well assay plate. A solution of enzyme (1/1600 dilution from aliquots; sufficient to produce 20% substrate conversion) and a separate solution of FAM-labeled cAMP PDE from Molecular Devices (product #R7506), at a final concentration of 50 nM are made in the assay buffer (10 mM Tris HCl, pH 7.2, 10 mM MgCl2, 0.05% NaN3 0.01% Tween-20, and 1 mM DTT). The enzyme and the substrate are then added to the assay plates in two consecutive additions of 10 μL, and then shaken to mix. The reaction is allowed to proceed at room temperature for 30 minutes. A binding solution is then made from the kit components, comprised of 80% Solution A, 20% Solution B and binding reagent at a volume of 1/600 the total binding solution.

Chain of human PDE10A2 (Q9Y233 267-1055): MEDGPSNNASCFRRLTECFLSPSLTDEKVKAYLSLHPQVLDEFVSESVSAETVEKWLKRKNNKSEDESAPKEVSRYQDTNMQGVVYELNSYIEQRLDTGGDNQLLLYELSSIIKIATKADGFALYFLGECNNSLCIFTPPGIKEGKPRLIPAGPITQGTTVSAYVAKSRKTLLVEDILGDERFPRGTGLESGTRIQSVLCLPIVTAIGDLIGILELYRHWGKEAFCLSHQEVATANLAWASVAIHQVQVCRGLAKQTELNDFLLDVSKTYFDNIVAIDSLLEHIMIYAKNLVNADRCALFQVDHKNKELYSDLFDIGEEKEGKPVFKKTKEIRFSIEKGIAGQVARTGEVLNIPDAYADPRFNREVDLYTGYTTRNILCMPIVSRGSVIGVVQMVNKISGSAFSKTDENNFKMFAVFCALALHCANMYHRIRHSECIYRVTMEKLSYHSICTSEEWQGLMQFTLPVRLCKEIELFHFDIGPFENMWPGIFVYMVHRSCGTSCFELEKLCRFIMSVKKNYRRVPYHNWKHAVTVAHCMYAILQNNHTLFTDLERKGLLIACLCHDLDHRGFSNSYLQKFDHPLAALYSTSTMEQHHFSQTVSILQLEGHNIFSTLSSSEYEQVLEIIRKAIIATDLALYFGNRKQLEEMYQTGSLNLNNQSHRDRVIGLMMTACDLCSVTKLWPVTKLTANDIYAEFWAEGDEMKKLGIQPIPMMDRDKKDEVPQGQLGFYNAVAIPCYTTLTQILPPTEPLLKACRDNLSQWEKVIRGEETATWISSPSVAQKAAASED

Row | SMILES | Ki [nM]
1 | Cc1nnc(CNc2cc(OC[C@H]3C[C@@H]3c3ccc(F)cn3)nn(C)c2=O)s1 [Example 7, 6-(((1S,2S)-2-(5-fluoropyridin-2-yl)cyclo-propyl)methoxy)-2-methyl-4-((5-methyl-1,3,4-thiadiazol-2-yl)methyl-amino)pyridazin-3(2H)one] | 0.535
2 | Cc1cccc([C@H]2C[C@@H]2COc2cc(NCc3cccnc3)c(=O)n(C)n2)n1 [Example 120, 2-methyl-6-(((1S,2S)-2-(6-methylpyridin-2-yl)cyclo-propyl)methoxy)-4-(pyridin-3-ylmethylamino-)pyridazin-3(2H)-one] | 1.3
3 | Cc1cnc(CNc2cc(OC[C@@H]3C[C@H]3c3nn(C)c4ccccc34)nn(C)c2=O)s1 [Example 114, 2-methyl-6-(((1R,2R)-2-(1-methyl-1H-indazol-3-yl)cyclopropyl)methoxy)-4-((5-methylthiazol-2-yl)methylamino)pyridazin-3(2H)-one] | 0.118
4 | COc1ccc([C@H]2C[C@@H]2COc2cc(NCc3cnn(C)n3)c(=O)n(C)n2)nc1 [Example 148, 6-(((1S,2S)-2-(5-methoxypyridin-2-yl)cyclopropyl)methoxy)-2-methyl-4-((2-methyl-2H-1,2,3-triazol-4-yl)methylamino)pyridazin-3(2H)-one] | 0.648
5 | COc1ccc([C@H]2C[C@@H]2COc2cc(NCc3ccc(Cl)c(C)n3)c(=O)n(C)n2)nc1 [Example 75, 4-(((5-chloro-6-methyl-pyridin-2-yl)methyl)-amino)-6-(((1S,2S)-2-(5-methoxypyridin-2-yl)cyclopropyl)methoxy)2-methylpyridazin-3(2H)one] | 1.3
6 | CCn1ccc(CNc2cc(OC[C@H]3C[C@@H]3c3ccc(OC)cn3)nn(C)c2=O)n1 [Example 106, 4-(((1-ethyl-1H-pyrazol-3-yl)methyl)amino)-6-(((-1S,2S)-2-(5-methoxy-pyridin-2-yl)cyclopropyl-)methoxy)-2-methyl-pyridazin-3(2H)-one] | 5.89
7 | Cc1nn(C)c(Cl)c1CNc1cc(OC[C@H]2C[C@@H]2c2ccn(C)n2)nn(C)c1=O [Example 40] | 11.8
8 | COc1ccc([C@H]2C[C@@H]2COc2cc(NCc3cnccn3)c(=O)n(C)n2)nc1 [Example 66, 6-(((1S,2S)-2-(5-methoxypyridin-2-yl)cyclopropyl)methoxy)-2-methyl-4-((pyrazin-2-ylmethyl)amino)pyridazin-3(2H)-one] | 5.7
9 | COc1ccc([C@H]2C[C@@H]2COc2cc(NCc3ccnn3C)c(=O)n(C)n2)nc1 [Example 100, 6-(((1S,2S)-2-(5-methoxypyridin-2-yl)-cyclopropyl)methoxy)-2-methyl-4-(((1-methyl-1H-pyrazol-5-yl)methyl)-amino)pyridazin-3(2H)one] | 0.192
10 | Cc1cccc([C@H]2C[C@@H]2COc2cc(NCc3cnn(C)c3)c(=O)n(C)n2)n1 [Example 117, 2-methyl-4-((1-methyl-1H-pyrazol-4-yl)methyl-amino)-6-(((1S,2S)-2-(6-methylpyridin-2-yl)cyclopropyl)methoxy) pyridazin-3(2H)-one] | 0.089
11 | Cc1ccc([C@H]2C[C@@H]2COc2cc(NCc3cnn4ccccc34)c(=O)n(C)n2)nc1 [Example 79, 2-methyl-6-(((1S,2S)-2-(5-methylpyridin-2-yl)cyclopropyl)methoxy)-4-((pyrazolo[1,5-a]pyridin-3-ylmethyl)amino)-pyridazin-3(2H)-one] | 1.1

Now those with a lower Ki, led by results:

Row | Ki [nM] | SMILES
12 | 0.064 | Cc1ncc(CNc2cc(OC[C@H]3C[C@@H]3c3ccc(Cl)cn3)nn(C)c2=O)s1 [Example 34, 6-(((1S,2S)-2-(5-chloropyridin-2-yl)cyclopropyl)methoxy)-2-methyl-4-((2-methylthiazol-5-yl)methylamino)pyridazin-3(2H)-one]
13 | 0.053 | COc1ccc([C@H]2C[C@@H]2COc2cc(NCc3cccnc3C)c(=O)n(C)n2)nc1 [Example 65, 6-(((1S,2S)-2-(5-methoxy-pyridin-2-yl)cyclopropyl-)-methoxy)-2-methyl-4-(((2-methylpyridin-3-yl)-methyl)amino)pyridazin-3(2H)-one]
14 | 0.051 | Cc1ccc(CNc2cc(OC[C@H]3C[C@@H]3c3ccc(C)cn3)nn(C)c2=O)nc1 [Example 9, 2-methyl-6-(((1S,2S)-2-(5-methylpyridin-2-yl)cyclopropyl)methoxy)-4-((5-methylpyridin-2-yl)methylamino)pyridazin-3(2H)-one]
15 | 0.033 | Cc1cccc([C@H]2C[C@@H]2COc2cc(NCc3nnc(C)s3)c(=O)n(C)n2)n1 [Example 115, 2-methyl-4-((5-methyl-1,3,4-thiadiazol-2-yl)methylamino)-6-(((1S,2S)-2-(6-methylpyridin-2-yl)cyclopropyl)methoxy) pyridazin-3(2H)-one]
16 | 0.028 | Cc1ccc(CNc2cc(OC[C@H]3C[C@@H]3c3ccc(OC(F)F)cn3)nn(C)c2=O)c(C)n1 [Example 58, 6-(((1S,2S)-2-(5-(difluoromethoxy)pyridin-2-yl)cyclopropyl)-methoxy)-4-(((2,6-di-methylpyridin-3-yl)-methyl)amino)-2-methyl-pyridazin-3(2H)-one]
17 | 0.027 | CCc1cc(CNc2cc(OC[C@H]3C[C@@H]3c3ccc(C)cn3)nn(C)c2=O)n(C)n1 [Example 138, 4-((3-ethyl-1-methyl-1H-pyrazol-5-yl)methylamino)-2-methyl-6-(((1S,2S)-2-(5-methylpyridin-2-yl)cyclopropyl)methoxy) pyridazin-3(2H)-one]
18 | 0.021 | Cc1ccc(CNc2cc(OC[C@H]3C[C@@H]3c3ccccn3)nn(C)c2=O)c(C)n1 [Example 55, 4-(((2,6-dimethylpyridin-3-yl)methyl)amino)-2-methyl-6-(((1S,2S)-2-(pyridin-2-yl)cyclopropyl-)-methoxy)pyridazin-3(2H)-one]
19 | 0.019 | Cc1ccc(CNc2cc(OC[C@H]3C[C@@H]3c3ccc(Cl)cn3)nn(C)c2=O)c(C)n1 [Example 54]
20 | 0.011 | Cc1ccc([C@H]2C[C@@H]2COc2cc(NCc3cnc(C)s3)c(=O)n(C)n2)nc1 [Example 13, 2-methyl-6-(((1S,2S)-2-(5-methylpyridin-2-yl)cyclopropyl)methoxy)-4-((2-methylthiazol-5-yl)methylamino)pyridazin-3(2H)-one]
21 | 0.008 | COc1ccc([C@H]2C[C@@H]2COc2cc(NCc3cc(C)no3)c(=O)n(C)n2)nc1 [Example 89, 6-(((1S,2S)-2-(5-methoxypyridin-2-yl)cyclopropyl)methoxy)-2-methyl-4-(((3-methylisoxazol-5-yl)methyl)amino)pyridazin-3(2H)-one]
22 | 0.007 | Cc1ccc([C@H]2C[C@@H]2COc2cc(NCc3ncc(C)s3)c(=O)n(C)n2)nc1 [Example 31, 2-methyl-6-(((1S,2S)-2-(5-methylpyridin-2-yl)cyclopropyl)methoxy)-4-((5-methylthiazol-2-yl)methylamino)pyridazin-3(2H)-one]
23 | 0.002 | COc1ccc([C@H]2C[C@@H]2COc2cc(NCc3cc(C)nn3C)c(=O)n(C)n2)nc1 [Example 132, 4-((1,3-dimethyl-1H-pyrazol-5-yl)methyl-amino)-6-(((1S,2S)-2-(5-methoxypyridin-2-yl)-cyclopropyl)methoxy)-2-methylpyridazin-3(2H)one]

Source: patent US9353104B2, “Substituted pyridizinone derivatives as PDE10 inhibitors” (priority 2013, dated 2016)
